# “Also recorded” adds a separate entry of the source. Read-outs that look alike come from different tables or passages of the source.
# Experiments:
# L929sAhFas = test: Necroptosis induced by FasL + zVAD-fmk in L929sAhFas cells; format: cell-based; conditions: Mus musculus
# Method: (§1) Besides, the EC50 of compound 7, compound 10 and necrostatin-1 (Nec-1) were determined in mouse or human cellular models of necroptosis induced by FasL+zVAD-fmk (a pan-caspase inhibitor), TRAIL+zVAD-fmk+Bp (Birinapant, a Smac mimetics) or TNF, and by using two cytotoxic assays (MTS Cell Proliferation assay or intracellular ATP level).
# [1] = tested on: Jurkat FADD-deficient I 2.1 cell line; test: Cell-based screening: necroptosis induced by TNF-α in Jurkat FADD-deficient cells, MTS viability assay; design: species or system human; conditions: for EC50: Homo sapiens, Jurkat FADD-deficient cells, TNF-α 10 ng/ml, 24 hours, MTS viability assay; for inhibition of necroptosis induced by TNF-α: human T lymphocyte, Jurkat FADD deficient cell line
# Source text: (§2) TNF-α can induce necroptosis in Jurkat cells (human T lymphocytes) when FADD was deleted. This model was used to screen various libraries of chemical compounds for characterization of new inhibitors of cellular necroptosis. Details on this cell-based assay can be found in Miao and Degterev (Methods Mol. Biol. 2009, 559, 79-93). The Jurkat FADD-deficient I 2.1 cell line used was purchased from ATCC and was maintained in RPMI 1640 medium (Gibco) containing Glutamax and 15% fetal calf serum (Life Technology). Necroptosis was induced by addition of 10 ng/ml of human recombinant TNF-α (Life Technology). Necrostatin-1 (Nec-1, Enzo Life Sciences) was used as model necroptosis inhibitor. Cells were maintained in 75 cm^2 flask and passed every 2 or 3 days. Chemical collections analysed were formatted in 96-well plates with 80 molecules per plates at 10 mM in 100% DMSO. For each collection plate, 2 cell plates were seeded (one necroptosis-induced with TNF-α and the other without TNF-α). Cells were seeded at 20000 cells/well, in 40 μl of medium, in a 96-well clear, flat bottom plate (CytoOne, Starlab) before treatment. Then, 40 μl of medium with or without TNF-α at 25 ng/ml were added to all wells in the corresponding plate. Immediately after TNF-α addition, 20 μl of diluted compound at 50 μM were added to the plates. Final concentration of each chemical compound was 10 μM at 0.1% DMSO. Four positives (Nec-1 at 10 μM final) and four negative (DMSO) controls were used in each plate to validate the assay. Cells were incubated at 37° C., 5% CO2 for 24 hours before performing MTS viability assay, described hereafter. Compounds were diluted before to treat cells. Liquid handling was performed using the Nimbus Microlab liquid handler (Hamilton Robotics) under microbiological safety workbench. The 10 mM compounds were diluted at 50 μM directly in cell medium.
# Jurkat Fadd−/− = test: Necroptosis induced by TNF in Jurkat Fadd−/− cells (Table 1); format: cell-based; conditions: Homo sapiens
# Source text: as §2, §1
# HT29 = test: Necroptosis induced by TRAIL + zVAD-fmk + Bp (Birinapant) in HT29 cells; format: cell-based, human; conditions: for anti-necroptotic effect by inducer (in words, summary of Table 1): TNF-, TRAIL- or FasL-induced necroptosis in mouse or human cellular models; for EC50: Homo sapiens, HT-29, HT29, TRAIL + Zvad + Bp
# Method: as §1
# [2] = target: T1, Human RIPK1 full length GST-tagged (Homo sapiens, UniProt Q13546); test: RIPK1 autophosphorylation assay; format: biochemical; conditions: [γ-32P] ATP, radiographic film, FIG. 5
# T1 construct: Human RIPK1 full length GST-tagged was baculovirally expressed in Sf9 cells; GST; made in house; host or cells: Sf9 insect cells (baculovirus, Bac-to-Bac expression system, Invitrogen)
# T1 sequence (Q13546 1-671): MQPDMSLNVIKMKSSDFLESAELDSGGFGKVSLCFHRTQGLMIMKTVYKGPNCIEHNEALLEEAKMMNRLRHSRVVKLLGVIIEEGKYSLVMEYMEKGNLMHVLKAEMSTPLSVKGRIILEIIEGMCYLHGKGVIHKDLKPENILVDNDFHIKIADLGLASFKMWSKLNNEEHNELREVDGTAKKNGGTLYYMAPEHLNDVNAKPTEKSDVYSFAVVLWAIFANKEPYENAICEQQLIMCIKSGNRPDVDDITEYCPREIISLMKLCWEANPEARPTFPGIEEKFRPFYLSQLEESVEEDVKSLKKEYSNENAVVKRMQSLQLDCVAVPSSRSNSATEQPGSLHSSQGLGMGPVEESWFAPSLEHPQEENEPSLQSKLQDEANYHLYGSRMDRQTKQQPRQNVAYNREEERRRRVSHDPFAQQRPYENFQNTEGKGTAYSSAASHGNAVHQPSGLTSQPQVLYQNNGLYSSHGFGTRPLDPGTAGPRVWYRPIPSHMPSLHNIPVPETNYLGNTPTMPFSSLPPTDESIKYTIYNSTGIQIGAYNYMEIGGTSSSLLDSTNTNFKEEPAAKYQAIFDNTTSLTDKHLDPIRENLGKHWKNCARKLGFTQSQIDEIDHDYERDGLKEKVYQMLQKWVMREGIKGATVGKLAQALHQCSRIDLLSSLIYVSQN
# Method: RIPK1 Autophosphorylation Assay: Human RIPK1 full length GST-tagged was baculovirally expressed in Sf9 cells according to manufacturer's instructions (Bac-to-Bac expression system, Invitrogen) and purified using gluthation-sepharose beads (GE Healthcare). The elution was made in 50 mM Tris-HCl, pH 8.0 buffer supplemented with 30 mM reduced gluthatione (Sigma). The protocol used to detect the enzymatic activity is adapted from Miao and Degterev (Methods Mol. Biol. 2009, 559, 79-93). Kinase reaction was initiated mixing 5 μl of eluted RIPK1, 5 μl of 3× kinase reaction buffer (5 mM MOPS pH 7.2, 2.5 mM β-glycerophosphate, 4 mM MgCl2, 2.5 mM MnCl2, 1 mM EGTA, 0.4 mM EDTA, 50 μg/ml BSA, 0.05 mM DTT), 2 μl H2O and 3 μl of the tested molecule. The mixture was kept on ice for 10 minutes. During the incubation, the ATP solution was prepared by mixing 5 μl of 3× kinase reaction buffer, 4 μl H2O, 6 μl cold ATP at 150 μM and 2 μCi of [γ-^32P] ATP. Add the ATP solution and the tested inhibitor to the kinase and incubate for 30 minutes at 30° C. To stop the enzymatic reaction, 5 μl of loading buffer were added and solution was heated for 3 minutes at 95° C. 25 μl of each reaction were loaded per well in pre-cast NuPage 12% Bis-Tris gel (Life Technology). Autophosphorylated RIPK1 band was visualized on radiographic film after 6 h exposition at −80° C.
# [3] = MTS Cell Proliferation assay, read-out: EC50, MTS
# [4] = intracellular ATP level, read-out: EC50, ATP level
SMILES,EC50 (L929sAhFas; [3]),EC50 (L929sAhFas; [4]),EC50 [1],inhibition of necroptosis induced by TNF-α [1],EC50 (Jurkat Fadd−/−; [3]),EC50 (Jurkat Fadd−/−; [4]),"anti-necroptotic effect by inducer (in words, summary of Table 1) (HT29)",inhibition of RIPK1 autophosphorylation (in words) [2],EC50 (HT29; [3]),EC50 (HT29; [4])
"CCOc1ccc(-c2cc3cccn(C(=O)N(CC)CC)c-3n2)cc1 [Compound 7, 2-(4-ethoxyphenyl)-N,N-diethyl-7H-pyrrolo[2,3-b]pyridine-7-carboxamide]",10 µM,5 µM,7 µM,dose-dependent inhibition,10 µM,9.3 µM,only inhibits TNF- or FasL-induced necroptosis,–,–,–
"CCOc1ccc(-c2cc3cccnc3n2C(C)=O)cc1 [Compound 10, 1-(2-(4-ethoxyphenyl)-1H-pyrrolo[2,3-b]pyridin-1-yl)ethan-1-one]",3.5 µM,5 µM,1.7 µM,dose-dependent inhibition,4 µM,2.6 µM,"inhibits TNF-, TRAIL- or FasL-induced necroptosis","dose-dependent inhibition; also recorded: inhibits, in a dose-dependent fashion",4 µM,5 µM
"CCOc1ccc(-c2cc3cccnc3n2C(=O)OC(C)(C)C)cc1 [Compound 17, tert-butyl 2-(4-ethoxyphenyl)-1H-pyrrolo[2,3-b]pyridine-1-carboxylate]",–,–,3 µM,dose-dependent inhibition,–,–,–,–,–,–
"CCOc1ccc(-c2cc3cccn(C(=O)OCc4ccccc4)c-3n2)cc1 [Compound 21, benzyl 2-(4-ethoxyphenyl)-7H-pyrrolo[2,3-b]pyridine-7-carboxylate]",–,–,5 µM,dose-dependent inhibition,–,–,–,–,–,–
"CCOc1ccc(-c2cc3c(Cl)ccnc3n2C(=O)OC(C)(C)C)cc1 [Compound 26, tert-butyl 4-chloro-2-(4-ethoxyphenyl)-1H-pyrrolo[2,3-b]pyridine-1-carboxylate]",–,–,2.4 µM,dose-dependent inhibition,–,–,–,–,–,–
"CCOc1ccc(-c2cc3cccnc3n2C(=O)OCC(Cl)(Cl)Cl)cc1 [Compound 32, 2,2,2-trichloroethyl 2-(4-ethoxyphenyl)-1H-pyrrolo[2,3-b]pyridine-1-carboxylate]",–,–,2.5 µM,dose-dependent inhibition,–,–,–,–,–,–
"CCOc1ccc(-c2cc3cccnc3n2C(=O)N2CCN(S(C)(=O)=O)C2=O)cc1 [Compound 33, 1-(2-(4-ethoxyphenyl)-1H-pyrrolo[2,3-b]pyridine-1-carbonyl)-3-(methylsulfonyl) imidazolidin-2-one]",–,–,1 µM,dose-dependent inhibition,–,–,–,–,–,–
"CCOc1ccc(-c2cc3cccn(C(=O)N(C(C)C)C(C)C)c-3n2)cc1 [Compound 34, 2-(4-ethoxyphenyl)-N,N-diisopropyl-7H-pyrrolo[2,3-b]pyridine-7-carboxamide]",–,–,2 µM,dose-dependent inhibition,–,–,–,–,–,–
"CCOc1ccc(-c2cc3cccn(C(=O)N4CCCC4)c-3n2)cc1 [Compound 35, (2-(4-ethoxyphenyl)-7H-pyrrolo[2,3-b]pyridin-7-yl)(pyrrolidin-1-yl)methanone]",–,–,3.5 µM,dose-dependent inhibition,–,–,–,–,–,–
"CCOc1ccc(-c2cc3cccn(C(=O)N4CCN(C)CC4)c-3n2)cc1 [Compound 36, (2-(4-ethoxyphenyl)-7H-pyrrolo[2,3-b]pyridin-7-yl) (4-methylpiperazin-1-yl)methanone]",–,–,1.05 µM,dose-dependent inhibition,–,–,–,–,–,–
"CN1C(=O)C(Cc2c[nH]c3ccccc23)NC1=S (stereo not drawn) [Nec-1, necrostatin-1, reference compound]",10 µM,10 µM,–,–,1.3 µM,1.3 µM,–,–,1.2 µM,2 µM
